US20230339886A1 (University of Florida Research Foundation, Incorporated, priority 2020, published 2023)

Biological target: T1, REV-ERBα LBD (human; residues 281-614 Δ324-422) (Homo sapiens, UniProt P20393, DEL324-422)
T1 construct: 6×Histag-REV-ERBα LBD (human; residues 281-614 Δ324-422); made in house; host or cells: Escherichia coli
Experiment: TR-FRET corepressor interaction assay (REV-ERBα LBD, FITC-SMRT peptide)
Format: biochemical
Details: Table 2, read-out: REVERBα agonism (EC50 class, FRET assay)
Procedure, shortened: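 Compound serial dilutions (in DMSO, triplicate) incubated 2 h at 4 °C; Tb donor excited at 340 nm, emission read at 495 nm and FITC acceptor at 520 nm. TR-FRET ratio (520/495 nm) plotted against ligand concentration and fitted to a sigmoidal dose-response curve.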

T1 sequence (P20393 with tags, fused parts or gaps DEL324-422): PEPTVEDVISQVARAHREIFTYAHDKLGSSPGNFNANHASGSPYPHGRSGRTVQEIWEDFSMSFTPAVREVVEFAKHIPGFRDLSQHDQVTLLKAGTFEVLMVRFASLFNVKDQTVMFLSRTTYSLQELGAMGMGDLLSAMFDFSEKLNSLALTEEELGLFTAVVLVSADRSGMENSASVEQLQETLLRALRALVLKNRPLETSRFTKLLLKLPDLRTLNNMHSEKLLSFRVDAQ
T1 sequence (Q9Y618 2335-2356 partner limits assumed): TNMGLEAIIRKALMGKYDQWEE

## CC(C)C(=O)n1cc(CNS(=O)(=O)N(C)C)c2ccc(-c3ccccc3C(F)(F)F)cc21 [Example 185, 1-(3-{[(dimethylsulfamoyl)amino]methyl}-6-[2-(trifluoromethyl)phenyl]-1H-indol-1-yl)-2-methylpropan-1-one]
  EC50: < 500 nM

## CN(C)S(=O)(=O)NCc1cn(C(=O)C(C)(C)C)c2cc(-c3ccncc3)ccc12 [Example 186, 1-(3-{[(dimethylsulfamoyl)amino]methyl}-6-(pyridin-4-yl)-1H-indol-1-yl)-2,2-dimethylpropan-1-one]
  EC50: 500 to 3000 nM

## CCC(=O)n1cc(CNS(=O)(=O)N(C)C)c2ccc(-c3ccncc3)cc21 [Example 187, 1-(3-{[(dimethylsulfamoyl)amino]methyl}-6-(pyridin-4-yl)-1H-indol-1-yl)propan-1-one]
  EC50: > 3000 nM

## CCC(C)C(=O)n1cc(CNS(=O)(=O)N(C)C)c2ccc(-c3ccncc3)cc21 (centres unmarked) [Example 188, 1-(3-{[(dimethylsulfamoyl)amino]methyl}-6-(pyridin-4-yl)-1H-indol-1-yl)-2-methylbutan-1-one]
  EC50: < 500 nM

## CN(C)S(=O)(=O)NCCn1cc(CC(C)(C)C)c2cc(-c3ccncc3)ccc21 [Example 189, N-{2-[5-(pyridin-4-yl)-3-(2,2-dimethylpropyl)-1H-indol-1-yl]ethyl}-N,N-dimethylsulfuric diamide]
  EC50: < 500 nM

## CN(C)S(=O)(=O)NCCn1cc(CC(C)(C)C)c2cc(-c3ccccc3Cl)ccc21 [Example 190, N-{2-[5-(2-chlorophenyl)-3-(2,2-dimethylpropyl)-1H-indol-1-yl]ethyl}-N,N-dimethyl-sulfuric diamide]
  EC50: < 500 nM

## CN(C)C(=O)n1cc(CCNS(=O)(=O)N(C)C)c2ccc(-c3ccncc3)cc21 [Example 194, 3-(2-((N,N-dimethylsulfamoyl)amino)ethyl)-N,N-dimethyl-6-(pyridin-4-yl)-1H-indole-1-carboxamide]
  EC50: > 3000 nM

## CC(C)C(=O)n1cc(C(C)NS(=O)(=O)N(C)C)c2ccc(-c3ccccc3Cl)cc21 (centres unmarked) [Example 196, 1-[6-(2-chlorophenyl)-3-{1-[(dimethylsulfamoyl)amino]ethyl}-1H-indol-1-yl]-2-methylpropan-1-one]
  EC50: < 500 nM

## CC(NS(=O)(=O)N(C)C)c1cn(C(=O)C(C)(C)C)c2cc(-c3ccncc3)ccc12 (centres unmarked) [Example 197, 1-(3-{1-[(dimethylsulfamoyl)amino]ethyl}-6-(pyridin-4-yl)-1H-indol-1-yl)-2,2-dimethylpropan-1-one]
  EC50: < 500 nM

## Cc1cc(-c2ccncc2)cc2c1c(CCNS(=O)(=O)N(C)C)cn2CC(C)C [Example 202, dimethyl({2-[4-methyl-1-(2-methylpropyl)-6-(pyridin-4-yl)-1H-indol-3-yl]ethyl}sulfamoyl)amine]
  EC50: > 3000 nM

## CC(C)Cn1cc(C(C)NS(=O)(=O)C2CC2)c2ccc(-c3ccccc3C(F)(F)F)cc21 (centres unmarked) [Example 204, N-(1-(1-isobutyl-6-(2-(trifluoromethyl)phenyl)-1H-indol-3-yl)ethyl)cyclopropanesulfonamide]
  EC50: < 500 nM

## CC(C)Cn1cc(C2(NS(=O)(=O)N(C)C)CC2)c2ccc(-c3ccncc3)cc21 [Example 207, dimethyl({1-[1-(2-methylpropyl)-6-(pyridin-4-yl)-1H-indol-3-yl]cyclopropyl}sulfamoyl)amine]
  EC50: > 3000 nM

## CC(C)Cn1cc(C(NS(=O)(=O)C2CC2)C(F)(F)F)c2ccc(-c3ccccc3C(F)(F)F)cc21 (centres unmarked) [Example 208]
  EC50: < 500 nM

## CC(C)(C)Cc1cn(CCNS(=O)(=O)C2CC2)c2ccc(-c3cccc4ccccc34)cc12 [Example 209, N-(2-(5-(naphthalen-1-yl)-3-neopentyl-1H-indol-1-yl)ethyl)cyclopropane-sulfonamide]
  EC50: < 500 nM

## CC(C)(C)Cc1cn(CCNS(=O)(=O)C2CC2)c2ccc(-c3ccc4ccccc4c3)cc12 [Example 210, N-(2-(5-(naphthalen-2-yl)-3-neopentyl-1H-indol-1-yl)ethyl)cyclopropane-sulfonamide]
  EC50: 500 to 3000 nM

## CC(C)(C)Cc1cn(CCNS(=O)(=O)C2CC2)c2ccc(-c3ccc4cc(O)ccc4c3)cc12 [Example 211, N-(2-(5-(6-hydroxynaphthalen-2-yl)-3-neopentyl-1H-indol-1-yl)ethyl)cyclopropane sulfonamide]
  EC50: 500 to 3000 nM

## CC(C)(C)Cc1cn(CCNS(=O)(=O)C2CC2)c2ccc(-c3ccccc3Cl)cc12 [Example 213, N-(2-(5-(2-chlorophenyl)-3-neopentyl-1H-indol-1-yl)ethyl)cyclopropanesulfonamide]
  EC50: < 500 nM

## CC(C)(C)Cc1cn(CCNS(=O)(=O)C2CC2)c2ccc(-c3nccc4ccccc34)cc12 [Example 215, N-(2-(5-(isoquinolin-1-yl)-3-neopentyl-1H-indol-1-yl)ethyl)cyclopropane-sulfonamide]
  EC50: > 3000 nM

## CC(C)(C)Cc1cn(CCNS(=O)(=O)C2CC2)c2ccc(-c3cccc4ccncc34)cc12 [Example 217, N-(2-(5-(isoquinolin-8-yl)-3-neopentyl-1H-indol-1-yl)ethyl)cyclopropane-sulfonamide]
  EC50: 500 to 3000 nM

## CC(C)(C)Cc1cn(CCNS(=O)(=O)C2CC2)c2ccc(-c3cncc4ccccc34)cc12 [Example 218, N-(2-(5-(isoquinolin-4-yl)-3-neopentyl-1H-indol-1-yl)ethyl)cyclopropane-sulfonamide]
  EC50: 500 to 3000 nM

## CC(C)(C)Cc1cn(CCNS(=O)(=O)C2CC2)c2ccc(-c3ccc(F)c4ccccc34)cc12 [Example 219, N-(2-(5-(4-fluoronaphthalen-1-yl)-3-neopentyl-1H-indol-1-yl)ethyl)cyclopropanesulfonamide]
  EC50: < 500 nM

## CC(C)Cn1cc([C@@H](NS(=O)(=O)C2CC2)C(F)(F)F)c2ccc(-c3ccccc3C(F)(F)F)cc21 [Example 222, (R)—N-(2,2,2-trifluoro-1-(1-isobutyl-6-(2-(trifluoromethyl)phenyl)-1H-indol-3-yl)ethyl)cyclopropanesulfonamide]
  EC50: 500 to 3000 nM

## CC(C)Cn1cc(C(NS(=O)(=O)N(C)C)C(F)(F)F)c2ccc(-c3ccccc3C(F)(F)F)cc21 (centres unmarked) [Example 223, dimethyl({2,2,2-trifluoro-1-[1-(2-methylpropyl)-6-[2-(trifluoromethyl)phenyl]-1H-indol-3-yl]ethyl}sulfamoyl)amine]
  EC50: < 500 nM

## CC(C)Cn1cc(C(NS(=O)(=O)C(C)C)C(F)(F)F)c2ccc(-c3ccccc3C(F)(F)F)cc21 (centres unmarked) [Example 224, N-(2,2,2-trifluoro-1-(1-isobutyl-6-(2-(trifluoromethyl)phenyl)-1H-indol-3-yl)ethyl)propane-2-sulfonamide]
  EC50: 500 to 3000 nM

## CC(C)(C)Cc1cn(CCNS(=O)(=O)C2CC2)c2ccc(-c3ccccc3)cc12 [Example 225, N-(2-(3-neopentyl-5-phenyl-1H-indol-1-yl)ethyl)cyclopropanesulfonamide]
  EC50: 500 to 3000 nM

## CC(C)(C)Cc1cn(CCNS(=O)(=O)C2CC2)c2ccc(-c3cccc(F)c3Cl)cc12 [Example 228, N-(2-(5-(2-chloro-3-fluorophenyl)-3-neopentyl-1H-indol-1-yl)ethyl)cyclopropane sulfonamide]
  EC50: < 500 nM

## CC(C)(C)Cc1cn(CCNS(=O)(=O)C2CC2)c2ccc(-c3ccc(N)c(F)c3Cl)cc12 [Example 229, N-(2-(5-(4-amino-2-chloro-3-fluorophenyl)-3-neopentyl-1H-indol-1-yl)ethyl) cyclo-propanesulfonamide]
  EC50: < 500 nM

## CC(C)(C)Cc1cn(CCNS(=O)(=O)C2CC2)c2ccc(C(F)(F)F)cc12 [Example 292, N-(2-(3-neopentyl-5-(trifluoromethyl)-1H-indol-1-yl)ethyl)cyclopropanesulfonamide]
  EC50: 500 to 3000 nM

## CC(C)(C)Cc1cn(CCNS(=O)(=O)C2CC2)c2cc(F)c(Br)cc12 [Example 293, N-(2-(5-bromo-6-fluoro-3-neopentyl-1H-indol-1-yl)ethyl)cyclopropanesulfonamide]
  EC50: > 3000 nM

## CC(C)(C)Cc1cn(CCNS(=O)(=O)C2CC2)c2cc(F)c(-c3ccc(F)cc3C(F)(F)F)cc12 [Example 294]
  EC50: < 500 nM

## CC(C)(C)Cc1cn(CCNS(=O)(=O)C2CC2)c2ccc(-c3ccc(F)cc3C(F)(F)F)c(F)c12 [Example 295]
  EC50: 500 to 3000 nM

## Cc1ccccc1-c1ccc2c(c1)c(CC(C)(C)C)cn2CCNS(=O)(=O)C1CC1 [Example 302, N-(2-(3-neopentyl-5-(o-tolyl)-1H-indol-1-yl)ethyl)cyclopropanesulfonamide]
  EC50: < 500 nM

## COc1ccccc1-c1ccc2c(c1)c(CC(C)(C)C)cn2CCNS(=O)(=O)C1CC1 [Example 303, N-(2-(5-(2-methoxyphenyl)-3-neopentyl-1H-indol-1-yl)ethyl)cyclopropane-sulfonamide]
  EC50: < 500 nM

## CC(C)(C)Cc1cn(CCNS(=O)(=O)C2CC2)c2ccc(-c3ccccn3)cc12 [Example 304, N-(2-(3-neopentyl-5-(pyridin-2-yl)-1H-indol-1-yl)ethyl)cyclopropanesulfonamide]
  EC50: 500 to 3000 nM

## CC(C)(C)Cc1cn(CCNS(=O)(=O)C2CC2)c2ccc(-c3cccnc3)cc12 [Example 305, N-(2-(3-neopentyl-5-(pyridin-3-yl)-1H-indol-1-yl)ethyl)cyclopropanesulfonamide]
  EC50: 500 to 3000 nM

## CC(C)Cn1cc([C@H](NS(=O)(=O)C2CC2)C(F)(F)F)c2ccc(Br)cc21 [Example 306, (S)—N-(1-(6-bromo-1-isobutyl-1H-indol-3-yl)-2,2,2-trifluoroethyl)cyclopropanesulfonamide]
  EC50: < 500 nM

## CC(C)Cn1cc([C@H](NS(=O)(=O)C2CC2)C(F)(F)F)c2ccc(-c3ccncc3)cc21 [Example 307, (S)—N-(2,2,2-trifluoro-1-(1-isobutyl-6-(pyridin-4-yl)-1H-indol-3-yl)ethyl)cyclopropanesulfonamide]
  EC50: < 500 nM

## CC(C)Cn1cc([C@H](NS(=O)(=O)C2CC2)C(F)(F)F)c2ccc(-c3ccc(F)cc3)cc21 [Example 308, (S)—N-(2,2,2-trifluoro-1-(6-(4-fluorophenyl)-1-isobutyl-1H-indol-3-yl)ethyl)cyclopropanesulfonamide]
  EC50: 500 to 3000 nM
